Experimental data taken from patent US8962630B2, “Pyrrolopyrimidine compounds and their uses” (Novartis AG, priority 2008, dated 2015).

How the values were obtained:
Assay type in all cases: biochemical
CDK4/cyclin D1 = CDK4/cyclin D1 (Homo sapiens (Human), UniProt P11802); experiment: CDK4/Cyclin D1 enzymatic activity assay (Lance TR-FRET); conditions: Table 2; 3 μM ATP; read-out: CDK4
Method: A 384-well microtiter Lance TR-FRET (time-resolved-fluorescence energy transfer) endpoint assay was used for CDK4/cyclin D1 kinase activity measurements. The same assay was used for IC50 determination of small molecule inhibitors. In general, the kinase reactions were carried out in 30 μL volumes in the reaction solution containing the following: 2 uL compound (in […]), 18 uL CDK4/cyclin D1 in Assay Buffer (50 mM HEPES, pH 7.5, 5 mM MgCl2, 2 mM MnCl2, 1 mM DTT, 0.05% BSA, 0.02% Tween-20), 10 uL of the mixture of pRb152 and ATP. The final reaction mixture contains compound (inhibitor) with the concentration varying from 0.005-10 μM, 2% DMSO, 0.3 nM CDK4/cyclin D1, 175 nM pRb152, and 3 μM ATP (Amersham Pharmacia, Cat. No. 27-2056-01). All reactions were run at room temperature in 384-well white flat-bottom OptiPlates (Perkin Elmer, Cat. No. 6007290) for 60 min then were quenched by the addition of 10 μL of 120 mM EDTA. The signals were captured by the addition of 40 μL of the Detection Solution containing the following: Detection Buffer (50 mM HEPES, pH 7.5, 30 mM EDTA, 0.1% Triton x-100, 0.05% BSA), 70 ng/mL anti-phospho-pRb(S780) (Cell Signaling Technology, Cat. No. 9307S), 1 nM Lance Eu-W1024-Rabbit anti-IgG (Perkin Elmer, Cat. No. AD0082), and 20 nM SureLight™ Allophycocyanin-Streptavidin (Perkin Elmer, Cat. No. CR130-100). The resulted solutions were incubated at room temperature for 2 hours before read on the Evision Multilabel Reader (Perkin Elmer, Envision 2102-0010).
CDk4/cyclin D1 recombinant protein used in the enzymatic activity assay was prepared by coexpressing pDEST10-CDK4 (N-terminal His6) and pFastBacDual-GST-hCyclinDl viruses in Sf21 cells.

CDK1/cyclin B = CDK1/cyclin B (Homo sapiens (Human), UniProt P06493); experiment: CDK1/Cyclin B enzymatic activity assay (IMAP-FP); conditions: Table 2; 20 μM ATP; read-out: CDK1
Chain of CDK1/cyclin B (P06493 whole entry, species assumed): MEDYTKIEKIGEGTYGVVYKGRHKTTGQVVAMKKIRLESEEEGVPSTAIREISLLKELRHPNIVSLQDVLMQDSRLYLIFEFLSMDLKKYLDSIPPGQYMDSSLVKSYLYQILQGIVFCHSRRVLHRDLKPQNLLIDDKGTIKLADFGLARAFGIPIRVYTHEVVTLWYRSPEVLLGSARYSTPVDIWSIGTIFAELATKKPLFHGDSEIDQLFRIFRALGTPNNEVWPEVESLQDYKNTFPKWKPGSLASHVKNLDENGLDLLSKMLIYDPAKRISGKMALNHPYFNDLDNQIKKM
Chain of CDK1/cyclin B (P14635 whole entry partner, species assumed): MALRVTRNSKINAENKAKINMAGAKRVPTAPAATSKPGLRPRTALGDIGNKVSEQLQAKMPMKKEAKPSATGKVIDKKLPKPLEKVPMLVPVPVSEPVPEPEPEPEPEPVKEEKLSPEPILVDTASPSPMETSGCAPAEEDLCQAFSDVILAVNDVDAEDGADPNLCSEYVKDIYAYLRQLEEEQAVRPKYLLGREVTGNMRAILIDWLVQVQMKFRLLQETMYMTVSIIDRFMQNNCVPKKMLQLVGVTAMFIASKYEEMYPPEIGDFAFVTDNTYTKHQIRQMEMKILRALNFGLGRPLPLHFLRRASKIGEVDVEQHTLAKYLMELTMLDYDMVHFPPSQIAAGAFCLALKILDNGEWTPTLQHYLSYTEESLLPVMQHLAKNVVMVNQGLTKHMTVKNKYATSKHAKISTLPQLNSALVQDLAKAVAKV
Source text: A 384-well microtiter IMAP-FPT™ (Molecular Devices Trade Mark Technology) endpoint assay was used for CDK1/cyclin B kinase activity measurements. The same assay was used for IC50 determination of small molecule inhibitors.

CDK2/cyclin A = CDK2/cyclin A (Homo sapiens (Human), UniProt P24941); experiment: CDK2/Cyclin A enzymatic activity assay (IMAP-FP); conditions: Table 2; read-out: CDK2

Chain of CDK4/cyclin D1 (P11802 whole entry): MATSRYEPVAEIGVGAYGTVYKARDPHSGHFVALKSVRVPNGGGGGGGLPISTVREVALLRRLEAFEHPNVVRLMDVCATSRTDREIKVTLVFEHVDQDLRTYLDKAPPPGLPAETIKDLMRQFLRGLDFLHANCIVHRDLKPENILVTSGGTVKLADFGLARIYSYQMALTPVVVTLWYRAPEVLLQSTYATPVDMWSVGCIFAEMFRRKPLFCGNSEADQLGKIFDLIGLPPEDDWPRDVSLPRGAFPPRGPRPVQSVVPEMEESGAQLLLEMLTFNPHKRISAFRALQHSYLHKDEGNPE
Chain of CDK4/cyclin D1 (P24385 whole entry partner): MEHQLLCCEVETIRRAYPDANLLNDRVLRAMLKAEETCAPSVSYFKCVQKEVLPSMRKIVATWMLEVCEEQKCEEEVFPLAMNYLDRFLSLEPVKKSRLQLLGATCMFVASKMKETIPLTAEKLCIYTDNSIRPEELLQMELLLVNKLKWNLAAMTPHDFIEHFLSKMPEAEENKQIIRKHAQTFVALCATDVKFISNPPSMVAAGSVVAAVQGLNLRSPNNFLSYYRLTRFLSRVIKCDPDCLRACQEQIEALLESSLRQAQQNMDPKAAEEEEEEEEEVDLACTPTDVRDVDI

Row | IC50 (CDK4/cyclin D1) | IC50 (CDK1/cyclin B) | IC50 (CDK2/cyclin A) | SMILES
1 | 100 to 1000 nM | > 15000 nM | > 15000 nM | CN(C)C(=O)c1cc2cnc(Nc3cnc(N4CCN(CCO)CC4)cn3)nc2n1C1CCCC1 [Example 15, 7-Cyclopentyl-2-[4-(2-hydroxy-ethyl)-3,4,5,6-tetrahydro-2H-[1,2]′bipyrazinyl-5′-ylamino]-7H-pyrrolo[2,3-d]pyrimidine-6-carboxylic acid dimethylamide]
2 | 10 to 100 nM | > 15000 nM | > 15000 nM | COCCN1CCN(Cc2ccc(Nc3ncc4cc(C(=O)N(C)C)n(C5CCCC5)c4n3)nc2)CC1 [Example 77, 7-Cyclopentyl-2-{5-[4-(2-methoxy-ethyl)-piperazin-1-ylmethyl]-pyridin-2-ylamino}-7H-pyrrolo[2,3-d]pyrimidine-6-carboxylic acid dimethylamide]
3 | 100 to 1000 nM | > 15000 nM | > 15000 nM | CN(C)C(=O)c1cc2cnc(Nc3ccccn3)nc2n1C1CCC(C)(O)CC1 (stereo not drawn) [Example 40, 7-(4-Hydroxy-4-methyl-cyclohexyl)-2-(pyridin-2-ylamino)-7H-pyrrolo[2,3-d]pyrimidine-6-carboxylic acid dimethylamide]
4 | 1 to 10 nM | > 15000 nM | > 15000 nM | CN(C)CC(=O)N1CCN(c2ccc(Nc3ncc4cc(C(=O)N(C)C)n(C5CCCC5)c4n3)nc2)CC1 [Example 88, 7-Cyclopentyl-2-{5-[4-(2-dimethylamino-acetyl)-piperazin-1-yl]-pyridin-2-ylamino}-7H-pyrrolo[2,3-d]pyrimidine-6-carboxylic acid dimethylamide]
5 | 100 to 1000 nM | > 15000 nM | > 15000 nM | C[C@@H]1CN(c2ccc(Nc3ncc4cc(C(=O)N(C)C)n(C5CCCC5)c4n3)nc2)CCN1C(=O)OC(C)(C)C [Example 30, (R)-4-[6-(7-Cyclopentyl-6-dimethylcarbamoyl-7H-pyrrolo[2,3-d]pyrimidin-2-ylamino)-pyridin-3-yl]-2-methyl-piperazine-1-carboxylic acid tert-butyl ester]
6 | 10 to 100 nM | > 15000 nM | > 15000 nM | CC(C)N1CCC(c2ccc(Nc3ncc4cc(C(=O)N(C)C)n(C5CCCC5)c4n3)nc2)CC1 [Example 80, 7-Cyclopentyl-2-(1′-isopropyl-1′,2′,3′,4′,5′,6′-hexahydro-[3,4′]bipyridinyl-6-ylamino)-7H-pyrrolo[2,3-d]pyrimidine-6-carboxylic acid dimethylamide]
7 | 10 to 100 nM | > 15000 nM | > 15000 nM | COCCN1CCN(c2ccc(Nc3ncc4cc(C(=O)N(C)C)n(C5CCCC5)c4n3)nc2)CC1 [Example 14, 7-Cyclopentyl-2-{5-[4-(2-methoxy-ethyl)-piperazin-1-yl]-pyridin-2-ylamino}-7H-pyrrolo[2,3-d]pyrimidine-6-carboxylic acid dimethylamide]
8 | 10 to 100 nM | > 15000 nM | > 15000 nM | CN(C)C(=O)c1cc2cnc(Nc3ccc(N4CC(O)C4)cn3)nc2n1C1CCCC1 [Example 32, 7-Cyclopentyl-2-[5-(3-hydroxy-azetidin-1-yl)-pyridin-2-ylamino]-7H-pyrrolo[2,3-d]pyrimidine-6-carboxylic acid dimethylamide]
9 | 100 to 1000 nM | > 15000 nM | > 15000 nM | CN(C)C(=O)c1cc2cnc(Nc3ccc(CN4CCN(S(C)(=O)=O)CC4)cn3)nc2n1C1CCCC1 [Example 34, 7-Cyclopentyl-2-[5-(4-methanesulfonyl-piperazin-1-ylmethyl)-pyridin-2-ylamino]-7H-pyrrolo[2,3-d]pyrimidine-6-carboxylic acid dimethylamide]
10 | 10 to 100 nM | > 15000 nM | > 15000 nM | CN(C)C(=O)c1cc2cnc(Nc3ccc(N4CCN(C(=O)N5CCCC5)CC4)cn3)nc2n1C1CCCC1 [Example 22, 7-Cyclopentyl-2-{5-[4-(pyrrolidine-1-carbonyl)-piperazin-1-yl]-pyridin-2-ylamino}-7H-pyrrolo[2,3-d]pyrimidine-6-carboxylic acid dimethylamide]
11 | 10 to 100 nM | > 15000 nM | > 15000 nM | C[C@H]1CN(c2ccc(Nc3ncc4cc(C(=O)N(C)C)n(C5CCCC5)c4n3)nc2)CCN1 [Example 17, 7-Cyclopentyl-2-[5-((S)-3-methyl-piperazin-1-yl)-pyridin-2-ylamino]-7H-pyrrolo[2,3-d]pyrimidine-6-carboxylic acid dimethylamide]
12 | 10 to 100 nM | > 15000 nM | > 15000 nM | CN(C)C(=O)c1cc2cnc(Nc3ccc(N4CCN(CCOCCO)CC4)cn3)nc2n1C1CCCC1 [Example 33, 7-Cyclopentyl-2-(5-{4-[2-(2-hydroxy-ethoxy)-ethyl]-piperazin-1-yl}-pyridin-2-ylamino)-7H-pyrrolo[2,3-d]pyrimidine-6-carboxylic acid dimethylamide]
13 | 10 to 100 nM | > 15000 nM | > 15000 nM | CN(C)C(=O)c1cc2cnc(Nc3ccc(C(=O)N4CCNCC4)cn3)nc2n1C1CCCC1 [Example 49, 7-Cyclopentyl-2-[5-(piperazine-1-carbonyl)-pyridin-2-ylamino]-7H-pyrrolo[2,3-d]pyrimidine-6-carboxylic acid dimethylamide]
14 | 10 to 100 nM | > 15000 nM | > 15000 nM | CN(C)C(=O)c1cc2cnc(Nc3ccc(N4CCN(CC5CCCCC5)CC4)cn3)nc2n1C1CCCC1 [Example 69, 2-[5-(4-Cyclohexylmethyl-piperazin-1-yl)-pyridin-2-ylamino]-7-cyclopentyl-7H-pyrrolo[2,3-d]pyrimidine-6-carboxylic acid dimethylamide]
15 | 10 to 100 nM | > 15000 nM | > 15000 nM | CNC(=O)c1cc2cnc(Nc3ccc(N4CCN(C(C)C)CC4)cn3)nc2n1C1CCCC1 [Example 51, 7-Cyclopentyl-2-[5-(4-isopropyl-piperazin-1-yl)-pyridin-2-ylamino]-7H-pyrrolo[2,3-d]pyrimidine-6-carboxylic acid methylamide]
16 | 1 to 10 nM | 1100 nM | 2800 nM | c1ncc(-c2cc3cnc(Nc4ccc(CN5CCNCC5)cn4)nc3n2C2CCCC2)o1 [Example 18, (7-Cyclopentyl-6-oxazol-5-yl-7H-pyrrolo[2,3-d]pyrimidin-2-yl)-(5-piperazin-1-ylmethyl-pyridin-2-yl)-amine]
17 | 10 to 100 nM | > 15000 nM | > 15000 nM | CN(C)C(=O)c1cc2cnc(Nc3ccc(N4CCN(CCO)CC4)nn3)nc2n1C1CCCC1 [Example 37, 7-Cyclopentyl-2-{6-[4-(2-hydroxy-ethyl)-piperazin-1-yl]-pyridazin-3-ylamino}-7H-pyrrolo[2,3-d]pyrimidine-6-carboxylic acid dimethylamide]
18 | 1 to 10 nM | > 15000 nM | > 15000 nM | CC(C)CCCN1CCN(c2ccc(Nc3ncc4cc(C(=O)N(C)C)n(C5CCCC5)c4n3)nc2)CC1 [Example 68, 7-Cyclopentyl-2-{5-[4-(4-methyl-pentyl)-piperazin-1-yl]-pyridin-2-ylamino}-7H-pyrrolo[2,3-d]pyrimidine-6-carboxylic acid dimethylamide]
19 | 10 to 100 nM | > 15000 nM | > 15000 nM | CN(C)C(=O)c1cc2cnc(Nc3ccc(N4CCN(CCC#N)CC4)cn3)nc2n1C1CCCC1 [Example 9, 2-{5-[4-(2-Cyano-ethyl)-piperazin-1-yl]-pyridin-2-ylamino}-7-cyclopentyl-7H-pyrrolo[2,3-d]pyrimidine-6-carboxylic acid dimethylamide]

Row | SMILES | IC50 (CDK4/cyclin D1) | IC50 (CDK1/cyclin B) | IC50 (CDK2/cyclin A)
20 | CN(C)C(=O)c1cc2cnc(Nc3ccc(CN4CCN(C)C(=O)C4)cn3)nc2n1C1CCCC1 [Example 60, 7-Cyclopentyl-2-[5-(4-methyl-3-oxo-piperazin-1-ylmethyl)-pyridin-2-ylamino]-7H-pyrrolo[2,3-d]pyrimidine-6-carboxylic acid dimethylamide] | 100 to 1000 nM | > 15000 nM | > 15000 nM
21 | CN(C)C(=O)c1cc2cnc(Nc3ccc(N4CCN(C[C@@H](O)CO)CC4)cn3)nc2n1C1CCCC1 [Example 46, 7-Cyclopentyl-2-{5-[4-((R)-2,3-dihydroxy-propyl)-piperazin-1-yl]-pyridin-2-ylamino}-7H-pyrrolo[2,3-d]pyrimidine-6-carboxylic acid dimethylamide] | 10 to 100 nM | > 15000 nM | > 15000 nM
